Laboratory results taken from patent US11445724B2, “Insecticidal compounds” (SYNGENTA PARTICIPATIONS AG, priority 2013, dated 2022).

Tests used:
Type in all cases: in vivo
[1] = tested on: Spodoptera littoralis (Egyptian cotton leafworm); assay: Spodoptera littoralis (Egyptian cotton leafworm) mortality, sprayed cotton leaf discs; conditions: foliar, 72 h, 200 ppm spray on cotton leaf discs, L1 larvae, mortality 3 DAT
[2] = tested on: Myzus persicae (Green peach aphid); assay: Myzus persicae (Green peach aphid) mortality, test compounds mixed with Sucrose solution under Parafilm; conditions: 120 h, 12.5 ppm in Sucrose solution, infested pea seedlings on Parafilm, mortality 5 days after infestation
[3] = tested on: Diabrotica balteata (Corn root worm); assay: Diabrotica balteata (Corn root worm) larval mortality, artificial diet in 24-well MTP; conditions: 120 h, application rate 200 ppm (concentration in well 18 ppm), L2 larvae, larval mortality after 5 days
[4] = tested on: Thrips tabaci (Onion thrips); assay: Thrips tabaci (Onion thrips) mortality, sprayed sunflower leaf discs; conditions: foliar, 168 h, 200 ppm spray on sunflower leaf discs, mixed ages, mortality after 7 days
[5] = tested on: Plutella xylostella (Diamond back moth); assay: Plutella xylostella (Diamond back moth) larval mortality, artificial diet in 24-well MTP; conditions: 144 h, application rate 200 ppm (concentration in well 18 ppm), L2 larvae, larval mortality after 6 days
[6] = tested on: Myzus persicae (Green peach aphid); assay: Myzus persicae (Green peach aphid) mortality, sprayed sunflower leaf discs; conditions: foliar, 144 h, 200 ppm spray on sunflower leaf discs, mixed ages, mortality 6 DAT

CCN(C(=O)c1ccc([N+](=O)[O-])cc1Cl)c1cccc(C(=O)Nc2c(Cl)cc(C(F)(C(F)(F)F)C(F)(F)F)cc2OC(F)F)c1F [Compound 116]
≥ 80%: pest or weed control at 200 ppm [1] | pest or weed control at 12.5 ppm [2] | pest or weed control at 200 ppm [3] | pest or weed control at 200 ppm [4]

COc1c(NC(=O)c2ccccc2F)cccc1C(=O)Nc1c(Br)cc(C(F)(C(F)(F)F)C(F)(F)F)cc1OC(F)F [Compound 33]
≥ 80%: pest or weed control at 200 ppm [1] | pest or weed control at 200 ppm [5] | pest or weed control at 12.5 ppm [2] | pest or weed control at 200 ppm [3] | pest or weed control at 200 ppm [4]

CCN(C(=O)c1ccccc1C)c1cccc(C(=O)Nc2c(Br)cc(C(F)(C(F)(F)F)C(F)(F)F)cc2OC(F)F)c1F [Compound 126]
≥ 80%: pest or weed control at 200 ppm [1] | pest or weed control at 200 ppm [5] | pest or weed control at 12.5 ppm [2] | pest or weed control at 200 ppm [3] | pest or weed control at 200 ppm [4]

CCN(C(=O)c1ccc(C(F)(F)F)cc1)c1cccc(C(=O)Nc2c(Br)cc(C(F)(C(F)(F)F)C(F)(F)F)cc2OC(F)F)c1F [Compound 105]
≥ 80%: pest or weed control at 200 ppm [1] | pest or weed control at 200 ppm [5] | pest or weed control at 12.5 ppm [2] | pest or weed control at 200 ppm [6] | pest or weed control at 200 ppm [3] | pest or weed control at 200 ppm [4]

CCN(C(=O)c1ccccc1)c1cccc(C(=O)Nc2c(Br)cc(C(F)(C(F)(F)F)C(F)(F)F)cc2OC(F)F)c1OC [Compound 138]
≥ 80%: pest or weed control at 200 ppm [1] | pest or weed control at 200 ppm [5] | pest or weed control at 12.5 ppm [2] | pest or weed control at 200 ppm [6] | pest or weed control at 200 ppm [3] | pest or weed control at 200 ppm [4]

O=C(Nc1cccc(C(=O)Nc2c(Cl)cc(C(F)(C(F)(F)F)C(F)(F)F)cc2OC(F)F)c1F)c1ccccc1F [Compound 45]
≥ 80%: pest or weed control at 200 ppm [1] | pest or weed control at 200 ppm [5] | pest or weed control at 12.5 ppm [2] | pest or weed control at 200 ppm [6] | pest or weed control at 200 ppm [3] | pest or weed control at 200 ppm [4]

CCN(C(=O)c1ccccc1)c1cccc(C(=O)Nc2c(Cl)cc(C(F)(C(F)(F)F)C(F)(F)F)cc2OC(F)F)c1OC [Compound 155]
≥ 80%: pest or weed control at 200 ppm [1] | pest or weed control at 200 ppm [5] | pest or weed control at 12.5 ppm [2] | pest or weed control at 200 ppm [6] | pest or weed control at 200 ppm [3] | pest or weed control at 200 ppm [4]

CCN(C(=O)c1ccc([N+](=O)[O-])cc1)c1cccc(C(=O)Nc2c(Cl)cc(C(F)(C(F)(F)F)C(F)(F)F)cc2OC(F)F)c1F [Compound 113]
≥ 80%: pest or weed control at 200 ppm [1] | pest or weed control at 200 ppm [5] | pest or weed control at 12.5 ppm [2] | pest or weed control at 200 ppm [3]

CCN(C(=O)c1cccc(F)c1F)c1cccc(C(=O)Nc2c(Cl)cc(C(F)(C(F)(F)F)C(F)(F)F)cc2OC(F)F)c1OC [Compound 159]
≥ 80%: pest or weed control at 200 ppm [1] | pest or weed control at 200 ppm [5] | pest or weed control at 12.5 ppm [2] | pest or weed control at 200 ppm [6] | pest or weed control at 200 ppm [3] | pest or weed control at 200 ppm [4]

CCN(C(=O)c1cccc(F)c1F)c1cccc(C(=O)Nc2c(Cl)cc(C(F)(C(F)(F)F)C(F)(F)F)cc2OC(F)F)c1F [Compound 123]
≥ 80%: pest or weed control at 200 ppm [1] | pest or weed control at 200 ppm [5] | pest or weed control at 12.5 ppm [2] | pest or weed control at 200 ppm [6] | pest or weed control at 200 ppm [3] | pest or weed control at 200 ppm [4]

CCN(C(=O)c1cc(Cl)ccc1F)c1cccc(C(=O)Nc2c(Br)cc(C(F)(C(F)(F)F)C(F)(F)F)cc2OC(F)F)c1F [Compound 104]
≥ 80%: pest or weed control at 200 ppm [1] | pest or weed control at 200 ppm [5] | pest or weed control at 12.5 ppm [2] | pest or weed control at 200 ppm [3] | pest or weed control at 200 ppm [4]

CCN(C(=O)c1ccc(F)cc1F)c1cccc(C(=O)Nc2c(Cl)cc(C(F)(C(F)(F)F)C(F)(F)F)cc2OC(F)F)c1OC [Compound 160]
≥ 80%: pest or weed control at 200 ppm [1] | pest or weed control at 200 ppm [5] | pest or weed control at 12.5 ppm [2] | pest or weed control at 200 ppm [3] | pest or weed control at 200 ppm [4]

COc1c(C(=O)Nc2c(Br)cc(C(F)(C(F)(F)F)C(F)(F)F)cc2OC(F)F)cccc1N(C)C(=O)c1cc[n+]([O-])cc1 [Compound 183, N-[3-[[2-bromo-6-(difluoromethoxy)-4-[1,2,2,2-tetrafluoro-1-(trifluoromethyl)ethyl]phenyl]carbamoyl]-2-methoxy-phenyl]-N-methyl-1-oxido-pyridin-1-ium-4-carboxamide]
≥ 80%: pest or weed control at 12.5 ppm [2] | pest or weed control at 200 ppm [3]

CCN(C(=O)c1cc(Cl)ccc1F)c1cccc(C(=O)Nc2c(Cl)cc(C(F)(C(F)(F)F)C(F)(F)F)cc2OC(F)F)c1F [Compound 115]
≥ 80%: pest or weed control at 200 ppm [1] | pest or weed control at 200 ppm [5] | pest or weed control at 12.5 ppm [2] | pest or weed control at 200 ppm [3] | pest or weed control at 200 ppm [4]

CCN(C(=O)c1cc(C(F)(F)F)ccc1F)c1cccc(C(=O)Nc2c(Br)cc(C(F)(C(F)(F)F)C(F)(F)F)cc2OC(F)F)c1F [Compound 110]
≥ 80%: pest or weed control at 200 ppm [1] | pest or weed control at 200 ppm [5] | pest or weed control at 12.5 ppm [2] | pest or weed control at 200 ppm [3] | pest or weed control at 200 ppm [4]

COc1c(NC(=O)c2ccc(C)cc2)cccc1C(=O)Nc1c(Cl)cc(C(F)(C(F)(F)F)C(F)(F)F)cc1OC(F)F [Compound 82]
≥ 80%: pest or weed control at 200 ppm [1] | pest or weed control at 200 ppm [5] | pest or weed control at 200 ppm [6] | pest or weed control at 200 ppm [3] | pest or weed control at 200 ppm [4]

CCN(C(=O)c1ccc(C(F)(F)F)cc1)c1cccc(C(=O)Nc2c(Cl)cc(C(F)(C(F)(F)F)C(F)(F)F)cc2OC(F)F)c1F [Compound 117]
≥ 80%: pest or weed control at 200 ppm [1] | pest or weed control at 200 ppm [5] | pest or weed control at 12.5 ppm [2] | pest or weed control at 200 ppm [3] | pest or weed control at 200 ppm [4]

COc1c(NC(=O)c2ccc(F)c(C(F)(F)F)c2)cccc1C(=O)Nc1c(Br)cc(C(F)(C(F)(F)F)C(F)(F)F)cc1OC(F)F [Compound 52]
≥ 80%: pest or weed control at 200 ppm [1] | pest or weed control at 200 ppm [5] | pest or weed control at 200 ppm [6] | pest or weed control at 200 ppm [3] | pest or weed control at 200 ppm [4]

CCN(C(=O)c1ccc(C)cc1)c1cccc(C(=O)Nc2c(Cl)cc(C(F)(C(F)(F)F)C(F)(F)F)cc2OC(F)F)c1F [Compound 114]
≥ 80%: pest or weed control at 200 ppm [1] | pest or weed control at 200 ppm [5] | pest or weed control at 12.5 ppm [2] | pest or weed control at 200 ppm [3] | pest or weed control at 200 ppm [4]

CCN(C(=O)c1ccc(C)cc1)c1cccc(C(=O)Nc2c(Cl)cc(C(F)(C(F)(F)F)C(F)(F)F)cc2OC(F)F)c1OC [Compound 149]
≥ 80%: pest or weed control at 200 ppm [1] | pest or weed control at 200 ppm [5] | pest or weed control at 200 ppm [6] | pest or weed control at 200 ppm [3] | pest or weed control at 200 ppm [4]

COc1c(NC(=O)c2cc(Cl)ccc2F)cccc1C(=O)Nc1c(Br)cc(C(F)(C(F)(F)F)C(F)(F)F)cc1OC(F)F [Compound 44]
≥ 80%: pest or weed control at 200 ppm [1] | pest or weed control at 200 ppm [5] | pest or weed control at 12.5 ppm [2]

COc1c(NC(=O)c2ccccc2C(F)(F)F)cccc1C(=O)Nc1c(Br)cc(C(F)(C(F)(F)F)C(F)(F)F)cc1OC(F)F [Compound 63]
≥ 80%: pest or weed control at 200 ppm [1] | pest or weed control at 200 ppm [5] | pest or weed control at 200 ppm [6] | pest or weed control at 200 ppm [3] | pest or weed control at 200 ppm [4]
